Experimental data: patent US20210363254A1, “PHARMACEUTICAL COMBINATIONS” (Novartis AG, priority 2018, published 2021)
Like-named read-outs stand apart in the source and are kept apart here.

COc1ncc(-c2nc3c(n2C(C)C)[C@H](c2ccc(Cl)cc2)N(c2cc(Cl)cn(C)c2=O)C3=O)c(OC)n1 [HDM201, (S)-5-(5-Chloro-1-methyl-2-oxo-1,2-dihydro-pyridin-3-yl)-6-(4-chloro-phenyl)-2-(2,4-dimethoxy-pyrimidin-5-yl)-1-isopropyl-5,6-dihydro-1H-pyrrolo[3,4-d]imidazol-4-one]
1 (33.3) n (%): Lipase Increased, All Grades (1B 200 mg, N=3) | Lipase Increased, Grade 3/4 (1B 200 mg, N=3) | Nausea, All Grades (1B 200 mg, N=3) | Oedema, All Grades (1B 200 mg, N=3) | Total, Grade 3/4 (1B 200 mg, N=3)
3 (100) n (%): Total, All Grades (1B 200 mg, N=3)
12 n (%): Nausea, All Grades (1B all subjects, N=20)
3 n (%): Abdominal Pain, All Grades (1B all subjects, N=20) | Lipase Increased, Grade 3/4 (1B all subjects, N=20)
1 n (%): Alanine Aminotransferase Increased, All Grades (1B all subjects, N=20) | Alopecia, All Grades (1B all subjects, N=20) | Amylase Increased, All Grades (1B all subjects, N=20) | Blood Bilirubin Increased, All Grades (1B all subjects, N=20) | Blood Creatine Phosphokinase Increased, Grade 3/4 (1B all subjects, N=20) | Dehydration, All Grades (1B all subjects, N=20) | Dry Skin, All Grades (1B all subjects, N=20) | Dysgeusia, All Grades (1B all subjects, N=20) | Eye Pain, All Grades (1B all subjects, N=20) | Fatigue, Grade 3/4 (1B all subjects, N=20) | Folliculitis, All Grades (1B all subjects, N=20) | Gamma-Glutamyltransferase Increased, All Grades (1B all subjects, N=20) | Headache, All Grades (1B all subjects, N=20) | Hyperkalaemia, All Grades (1B all subjects, N=20) | Hypocalcaemia, All Grades (1B all subjects, N=20) | Influenza Like Illness, All Grades (1B all subjects, N=20) | Lethargy, All Grades (1B all subjects, N=20) | Leukopenia, Grade 3/4 (1B all subjects, N=20) | Lymphopenia, Grade 3/4 (1B all subjects, N=20) | Monocytosis, All Grades (1B all subjects, N=20) | Musculoskeletal Pain, All Grades (1B all subjects, N=20) | Myalgia, All Grades (1B all subjects, N=20)
2 n (%): Asthenia, All Grades (1B all subjects, N=20) | Blood Creatine Phosphokinase Increased, All Grades (1B all subjects, N=20) | Blood Creatinine Increased, All Grades (1B all subjects, N=20) | Leukopenia, All Grades (1B all subjects, N=20) | Lymphopenia, All Grades (1B all subjects, N=20)
4 n (%): Decreased Appetite, All Grades (1B all subjects, N=20) | Fatigue, All Grades (1B all subjects, N=20) | Lipase Increased, All Grades (1B all subjects, N=20)
0 n (%): Hyperkalaemia, Grade 3/4 (1B 200 mg, N=3) | Hypocalcaemia, All Grades (1B 200 mg, N=3) | Hypocalcaemia, Grade 3/4 (1B 200 mg, N=3) | Influenza Like Illness, All Grades (1B 200 mg, N=3) | Influenza Like Illness, Grade 3/4 (1B 200 mg, N=3) | Lethargy, All Grades (1B 200 mg, N=3) | Lethargy, Grade 3/4 (1B 200 mg, N=3) | Leukopenia, All Grades (1B 200 mg, N=3) | Leukopenia, Grade 3/4 (1B 200 mg, N=3) | Lymphopenia, All Grades (1B 200 mg, N=3) | Lymphopenia, Grade 3/4 (1B 200 mg, N=3) | Monocytosis, All Grades (1B 200 mg, N=3) | Monocytosis, Grade 3/4 (1B 200 mg, N=3) | Musculoskeletal Pain, All Grades (1B 200 mg, N=3) | Musculoskeletal Pain, Grade 3/4 (1B 200 mg, N=3) | Myalgia, All Grades (1B 200 mg, N=3) | Myalgia, Grade 3/4 (1B 200 mg, N=3) | Nausea, Grade 3/4 (1B 200 mg, N=3) | Neuralgia, All Grades (1B 200 mg, N=3) | Neuralgia, Grade 3/4 (1B 200 mg, N=3) | Neutropenia, All Grades (1B 200 mg, N=3) | Neutropenia, Grade 3/4 (1B 200 mg, N=3) | Neutrophil Count Decreased, All Grades (1B 200 mg, N=3) | Neutrophil Count Decreased, Grade 3/4 (1B 200 mg, N=3) | Oedema, Grade 3/4 (1B 200 mg, N=3) | Oral Candidiasis, All Grades (1B 200 mg, N=3) | Oral Candidiasis, Grade 3/4 (1B 200 mg, N=3) | Platelet Count Decreased, All Grades (1B 200 mg, N=3) | Platelet Count Decreased, Grade 3/4 (1B 200 mg, N=3) | Pruritus, All Grades (1B 200 mg, N=3) | Pruritus, Grade 3/4 (1B 200 mg, N=3) | Thrombocytopenia, All Grades (1B 200 mg, N=3) | Thrombocytopenia, Grade 3/4 (1B 200 mg, N=3) | Vomiting, All Grades (1B 200 mg, N=3) | Vomiting, Grade 3/4 (1B 200 mg, N=3) | Weight Decreased, All Grades (1B 200 mg, N=3) | Weight Decreased, Grade 3/4 (1B 200 mg, N=3) | White Blood Cell Count Decreased, All Grades (1B 200 mg, N=3) | White Blood Cell Count Decreased, Grade 3/4 (1B 200 mg, N=3) | Abdominal Pain, Grade 3/4 (1B all subjects, N=20) | Alanine Aminotransferase Increased, Grade 3/4 (1B all subjects, N=20) | Alopecia, Grade 3/4 (1B all subjects, N=20) | Amylase Increased, Grade 3/4 (1B all subjects, N=20) | Anaemia, Grade 3/4 (1B all subjects, N=20) | Asthenia, Grade 3/4 (1B all subjects, N=20) | Blood Bilirubin Increased, Grade 3/4 (1B all subjects, N=20) | Blood Creatinine Increased, Grade 3/4 (1B all subjects, N=20) | Decreased Appetite, Grade 3/4 (1B all subjects, N=20) | Dehydration, Grade 3/4 (1B all subjects, N=20) | Diarrhoea, Grade 3/4 (1B all subjects, N=20) | Dry Skin, Grade 3/4 (1B all subjects, N=20) | Dysgeusia, Grade 3/4 (1B all subjects, N=20) | Eye Pain, Grade 3/4 (1B all subjects, N=20) | Folliculitis, Grade 3/4 (1B all subjects, N=20) | Gamma-Glutamyltransferase Increased, Grade 3/4 (1B all subjects, N=20) | Headache, Grade 3/4 (1B all subjects, N=20) | Hyperkalaemia, Grade 3/4 (1B all subjects, N=20) | Hypocalcaemia, Grade 3/4 (1B all subjects, N=20) | Influenza Like Illness, Grade 3/4 (1B all subjects, N=20) | Lethargy, Grade 3/4 (1B all subjects, N=20) | Monocytosis, Grade 3/4 (1B all subjects, N=20) | Musculoskeletal Pain, Grade 3/4 (1B all subjects, N=20) | Myalgia, Grade 3/4 (1B all subjects, N=20)
5 n (%): Anaemia, All Grades (1B all subjects, N=20) | Diarrhoea, All Grades (1B all subjects, N=20)
